From patent US12139477B2, “Compounds, salts thereof and methods for treatment of diseases” (ACADIA PHARMACEUTICALS INC., priority 2017, dated 2024)

Molecular target: 5HT2A (Homo sapiens, UniProt P28223)
Assay: Receptor Selection and Amplification (R-SAT) functional assay
Assay type: cell-based
Design: expressed in transfected cells; host or cells: NIH3T3 cells, pSI mammalian expression vector
Details: NIH3T3 cells; Ki from IC50 by Cheng and Prussoff; read-out: 5-HT2a (pKi) (R-SAT) (converted)
Description: Receptor Selection and Amplification (R-SAT) Assays. […] The IC50 determined in the RSAT assay was converted into a Ki value using the method of Cheng and Prussoff, Biochem Pharmacol., 1973 Dec. 1; 22(23):3099-108. pKi is the negative of the log(Ki).

Sequence of 5HT2A (P28223 whole entry): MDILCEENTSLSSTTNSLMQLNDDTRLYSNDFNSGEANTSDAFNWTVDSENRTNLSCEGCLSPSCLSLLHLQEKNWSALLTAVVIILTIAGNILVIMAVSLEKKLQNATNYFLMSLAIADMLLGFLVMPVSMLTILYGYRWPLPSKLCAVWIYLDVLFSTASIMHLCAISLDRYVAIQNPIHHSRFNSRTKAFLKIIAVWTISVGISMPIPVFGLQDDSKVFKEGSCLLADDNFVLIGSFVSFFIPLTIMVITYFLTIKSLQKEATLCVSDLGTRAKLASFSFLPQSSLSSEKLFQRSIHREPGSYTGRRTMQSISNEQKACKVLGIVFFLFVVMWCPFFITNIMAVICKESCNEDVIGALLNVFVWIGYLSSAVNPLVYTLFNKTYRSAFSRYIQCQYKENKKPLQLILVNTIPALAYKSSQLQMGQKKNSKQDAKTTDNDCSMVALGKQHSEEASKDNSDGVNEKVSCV

Row | SMILES | Ki [nM]
1 | CC(C)COc1ccc(CNC(=O)N(Cc2cccc(F)c2F)C2CCN(C)CC2)cc1 [Example 129, 1-[(2,3-difluorophenyl)methyl]-1-(1-methylpiperidin-4-yl)-3-{[4-(2-methylpropoxy)phenyl]methyl}urea; Trifluoroacetic Acid] | 50.1
2 | CC(C)Oc1ccc(CNC(=O)N(Cc2ccc(F)c(F)c2)C2CCN(C)CC2)cc1 [Example 130, 1-[(3,4-difluorophenyl)methyl]-1-(1-methylpiperidin-4-yl)-3-{[4-(propan-2-yloxy)phenyl]methyl}urea; Trifluoroacetic Acid] | 79.4
3 | O=C(O)C(F)(F)F.[2H]C([2H])([2H])N1CCC(N(Cc2ccc(F)cc2F)C(=O)NCc2ccc(OC(C)C)cc2)CC1 [Example 131, 1-[(2,4-difluorophenyl)methyl]-1-[1-(^2H3)methylpiperidin-4-yl]-3-{[4-(propan-2-yloxy)phenyl]methyl}urea; Trifluoroacetic Acid] | 0.631
4 | CC(C)Oc1ccc(CNC(=O)N(Cc2ccc(F)c(F)c2F)C2CCNCC2)cc1 [Example 132, 1-(piperidin-4-yl)-3-{[4-(propan-2-yloxy)phenyl]methyl}-1-[(2,3,4-trifluorophenyl)methyl]urea; Trifluoroacetic Acid] | 79.4
5 | CC(C)Oc1ccc(CNC(=O)N(Cc2ccc(Cl)cc2F)C2CCNCC2)cc1 [Example 133, 3-[(4-chloro-2-fluorophenyl)methyl]-3-(piperidin-4-yl)-1-{[4-(propan-2-yloxy)phenyl]methyl}urea; Trifluoroacetic Acid] | 5.01

Other lines, results leading:

Row | Ki [nM] | SMILES
6 | 3.98 | CC(C)COc1ccc(CNC(=O)N(Cc2ccc(Cl)cc2F)C2CCNCC2)cc1 [Example 134, 3-[(4-chloro-2-fluorophenyl)methyl]-1-{[4-(2-methylpropoxy)phenyl]methyl}-3-(piperidin-4-yl)urea; Trifluoroacetic Acid]
7 | 15.8 | CC(C)Oc1ccc(CNC(=O)N(Cc2ccc(F)c(F)c2F)C2CCN(C)CC2)cc1 [Example 135, 1-(1-methylpiperidin-4-yl)-3-{[4-(propan-2-yloxy)phenyl]methyl}-1-[(2,3,4-trifluorophenyl)methyl]urea; Trifluoroacetic Acid]
8 | 7.94 | COc1cc(F)c(CN(C(=O)NCc2ccc(OC(C)C)cc2)C2CCN(C)CC2)c(F)c1 [Example 136, 1-[(2,6-difluoro-4-methoxyphenyl)methyl]-1-(1-methylpiperidin-4-yl)-3-{[4-(propan-2-yloxy)phenyl]methyl}urea; Trifluoroacetic Acid]
9 | 3.16 | CCCOc1ccc(CNC(=O)N(Cc2ccc(F)cc2F)C2CCN(C)CC2)cc1 [Example 140, 1-[(2,4-difluorophenyl)methyl]-1-(1-methylpiperidin-4-yl)-3-[(4-propoxyphenyl)methyl]urea]
10 | 5.01 | COc1cc(CNC(=O)N(Cc2ccc(F)cc2F)C2CCN(C)CC2)ccc1F [Example 146, 1-[(2,4-difluorophenyl)methyl]-3-[(4-fluoro-3-methoxyphenyl)methyl]-1-(1-methylpiperidin-4-yl)urea; Trifluoroacetic Acid]
11 | 3.16 | CCCCC(CC)COc1ccc(CNC(=O)N(Cc2ccc(F)cc2F)C2CCN(C)CC2)cc1 (stereo not shown) [Example 147, 1-[(2,4-difluorophenyl)methyl]-3-({4-[(2-ethylhexyl)oxy]phenyl}methyl)-1-(1-methylpiperidin-4-yl)urea; Trifluoroacetic Acid]
12 | 5.01 | COc1cc(F)c(CNC(=O)N(Cc2ccc(F)cc2F)C2CCN(C)CC2)c(F)c1 [Example 150, 1-[(2,6-difluoro-4-methoxyphenyl)methyl]-3-[(2,4-difluorophenyl)methyl]-3-(1-methylpiperidin-4-yl)urea; Trifluoroacetic Acid]
13 | 7.94 | O=C(O)C(F)(F)F.[2H]C1([2H])Oc2ccc(CNC(=O)N(Cc3ccc(F)cc3F)C3CCN(C)CC3)cc2C1([2H])[2H] [Example 159, 1-[(2,4-difluorophenyl)methyl]-3-{[2,3-dihydro(2,2,3,3-^2H4)-1-benzofuran-5-yl]methyl}-1-(1-methylpiperidin-4-yl)urea; Trifluoroacetic Acid]
